Test results: US9822115B2, “Nitrogen containing compounds and their use as antibacterial agents” (WOCKHARDT LIMITED, priority 2014, dated 2017)
pIC50: −log10 of the molar value. Converted amounts (≈) assume the structure as drawn. Like-named read-outs stand apart in the source and are kept apart here.

Tests used:
[1] = biological target: T1, Class A beta-lactamase, K. pneumoniae ATCC 700603 (SHV 18) (Klebsiella pneumoniae, UniProt P0AD64, E235K/G234A/R39S); experiment: biochemical
T1 construct: preincubated mixture of crude enzyme and the agents; endogenous in cells; host or cells: K. pneumoniae ATCC 700603
Outline: (§1)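 Crude enzyme preincubated with inhibitor 10 min at 37 °C, then nitrocefin (100 uM) added for 5 min. Absorbance read at 485 nm; IC50 obtained from sigmoidal dose-response fit of absorbance versus concentration.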

[2] = biological target: T2, Class D beta-lactamase, A. baumannii NCTC 13301 (OXA 23) (Acinetobacter baumannii, UniProt Q9L4P2); experiment: Beta-lactamase enzyme inhibition (nitrocefin, crude enzyme); format: biochemical; conditions: Class D A. baumannii NCTC 13301 (OXA 23); read-out: Beta-lactamase enzyme inhibition IC50
T2 construct: preincubated mixture of crude enzyme and the agents; endogenous in cells; host or cells: A. baumannii NCTC 13301
Outline: as §1

E. coli NCTC 13353 = experiment: Zone of inhibition, compound alone and in combination with ceftazidime (agar well); format: cell-based; conditions: for zone of inhibition at 0.25 µg/disc / zone of inhibition at 0.5 µg/disc / zone of inhibition at 1 µg/disc / zone of inhibition at […]: Escherichia coli, NCTC13353, E. coli NCTC 13353, read-out: Diameter of Zone of Inhibition; for zone of inhibition at 0.5 µg/disc: 0.5 μg/well; for zone of inhibition at 1 µg/disc: 1 μg/well
Procedure: (§2) Determination of antibacterial activity of combinations according to invention: In a typical experiment, two sets of plates containing growth media (Molten Mueller Hilton Agar) and bacterial strains were prepared. One set of plates was taken as control (without ceftazidime) and other set contained ceftazidime. The media was allowed to solidify and wells were punched later. A two-fold serial dilution range of each of the compounds according to invention was prepared and 50 μl of each of the dilution was added into the punched well. […] The Table 5 provides the antibacterial activity of the combination comprising compounds according to invention and ceftazidime.

E. coli M50 = experiment: as above; format: cell-based; conditions: for Diameter of Zone of Inhibition: E. coli M50; for zone of inhibition at 0.5 µg/disc: 0.5 μg/well; for zone of inhibition at 1 µg/disc: 1 μg/well
Procedure: as §2

[3] = test system: E. coli NCTC 13353 (CTX-M15, OXA-1); experiment: Antibacterial activity, MIC by agar dilution (CLSI); format: cell-based; conditions: E. Coli NCTC 13353 (CTX-M15, OXA-1)
Outline: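 CLSI agar dilution on Mueller Hinton agar containing doubling compound dilutions, inoculated at about 10^4 CFU/spot from fresh cultures. Plates were incubated 18 h at 37 °C in ambient air before growth scoring. MIC is reported in mcg/ml.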

[4] = test system: K. pneomoniae S48 (NDM, SHV, TEM); experiment: as above; format: cell-based, K. pneumoniae; conditions: Table 2, K. pneomoniae S48 (NDM, SHV, TEM)
Outline: (§3)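 Agar dilution per CLSI on Mueller Hinton agar with doubling compound dilutions, about 10^4 CFU/spot by multipoint inoculator. Plates incubated 16-20 h at 35±2° C in ambient air; procedure also gives 37° C for 18 h. MIC (mcg/ml) scored as growth or no growth.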

[5] = test system: T3, Class C beta-lactamase, E. coli M50 (CMY/DHA); format: biochemical; conditions: read-out: Beta-lactamase enzyme inhibition IC50
T3 construct: no borders, tags or purification printed
Procedure: Determination of enzyme inhibition activity: Concentration of the inhibitor required to inhibit 50% of enzymatic activity was measured by adding a chromogenic substrate, Nitrocefin (100 uM, 5 min) to the preincubated mixture of crude enzyme and the agents (37° C., 10 min). Absorbance was measured at 485 nm by UV-spectrophotometer. The IC50 was calculated by plotting absorbance against concentration through Sigmoidal dose response curve using Graph Pad software.
The enzyme inhibition was expressed as IC50.

[6] = test system: K. pneumoniae H521 (KPC, SHV, TEM); experiment: Antibacterial activity, MIC by agar dilution (CLSI); format: cell-based; conditions: Table 2, K. pneumoniae H521 (KPC, SHV, TEM)
Outline: as §3

[7] = Compound + Ceftazidime (10 μg/ml), 0.25 μg/well
[8] = Compound + Ceftazidime (10 μg/ml)
[9] = Escherichia coli, M50, E. coli M50, Compound + Ceftazidime (10 μg/ml), 0.25 μg/well, read-out: Diameter of Zone of Inhibition
[10] = Escherichia coli, M50, E. coli M50, Compound + Ceftazidime (10 μg/ml), read-out: Diameter of Zone of Inhibition
[11] = Escherichia coli, M50, E. coli M50, Compound alone, read-out: Diameter of Zone of Inhibition
[12] = Escherichia coli, NCTC13353, Table 2, read-out: MIC
[13] = Klebsiella pneumoniae, read-out: MIC

T1 sequence (P0AD64 22-286 R39S/G234A/E235K): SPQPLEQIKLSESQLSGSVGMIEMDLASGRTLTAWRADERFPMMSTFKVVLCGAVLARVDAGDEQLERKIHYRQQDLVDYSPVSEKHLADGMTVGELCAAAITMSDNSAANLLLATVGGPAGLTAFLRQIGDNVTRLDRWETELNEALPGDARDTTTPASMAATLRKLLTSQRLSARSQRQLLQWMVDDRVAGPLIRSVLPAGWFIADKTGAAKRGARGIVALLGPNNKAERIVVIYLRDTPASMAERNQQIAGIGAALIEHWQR
T2 sequence (Q9L4P2 18-273): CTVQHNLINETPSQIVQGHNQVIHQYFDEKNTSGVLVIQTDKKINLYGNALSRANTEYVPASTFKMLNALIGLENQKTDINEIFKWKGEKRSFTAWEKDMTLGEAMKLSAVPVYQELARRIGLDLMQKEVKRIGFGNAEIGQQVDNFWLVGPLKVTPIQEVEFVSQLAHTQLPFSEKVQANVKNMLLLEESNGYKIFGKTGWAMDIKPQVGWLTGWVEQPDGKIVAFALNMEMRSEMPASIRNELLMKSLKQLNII

Row | SMILES | pIC50 [1] | pIC50 [2] | zone of inhibition at 0.25 µg/disc (E. coli NCTC 13353; [7]) [mm] | zone of inhibition at 0.5 µg/disc (E. coli NCTC 13353; [8]) [mm] | zone of inhibition at 1 µg/disc (E. coli NCTC 13353; [8]) [mm] | zone of inhibition at […] (E. coli NCTC 13353; [8]) [mm] | zone of inhibition at 0.5 µg/disc (E. coli NCTC 13353; Compound alone) [mm] | zone of inhibition at 1 µg/disc (E. coli NCTC 13353; Compound alone) [mm] | zone of inhibition at 0.25 µg/disc (E. coli M50; [9]) [mm] | zone of inhibition at 0.5 µg/disc (E. coli M50; [10]) [mm] | zone of inhibition at 1 µg/disc (E. coli M50; [10]) [mm] | zone of inhibition at 0.5 µg/disc (E. coli M50; [11]) [mm] | zone of inhibition at 1 µg/disc (E. coli M50; [11]) [mm] | MIC [3, 12] [µg/mL] | MIC [4, 13] [µg/mL] | pIC50 [5] | MIC [6, 13] [µg/mL] | further results
1 | C[C@@H](N)COc1ccccc1CC(=O)NNC(=O)[C@@H]1CC[C@@H]2CN1C(=O)N2OS(=O)(=O)O [Example 3, (2S,5R)-Sulfuric Acid mono-[2-(N′-{2-[2-((R)-2-amino-propoxy)-phenyl]-acetyl}-hydrazinocarbonyl)-7-oxo-1,6-diaza-bicyclo[3.2.1]oct-6-yl]ester] | 7.10 | 5.70 | 14.5 | 17.5 | 21.5 | 11 | 10 | 13 | 10.5 | 14 | 17 | 11.5 | 14 | 1 (≈ 2.12 µM) | 1 (≈ 2.12 µM) | 7.14 | 2 (≈ 4.24 µM) | Diameter of Zone of Inhibition (E. coli NCTC 13353; E. coli NCTC 13353, Compound alone, 0.25 μg/well): No growth; Diameter of Zone of Inhibition (E. coli M50; Compound + Ceftazidime (10 μg/ml), […]): No growth; Diameter of Zone of Inhibition (E. coli M50; Compound alone, 0.25 μg/well): No growth
2 | NCc1ccc(CC(=O)NNC(=O)[C@@H]2CC[C@@H]3CN2C(=O)N3OS(=O)(=O)O)cc1 [Example 12, (2S,5R)-sulfuric acid mono-[2-(N′-(4-aminomethyl-phenyl-acetyl)-hydrazinocarbonyl)-7-oxo-1,6-diaza-bicyclo[3.2.1]oct-6-yl]ester] | 6.84 | 6.27 | 22 | 26 | 29 | 19 | 17 | 19 | 19 | 21 | 23 | 18 | 19.5 | 0.25 (≈ 0.585 µM) | 0.25 (≈ 0.585 µM) | 7.89 | 0.25 (≈ 0.585 µM) | zone of inhibition at 0.25 µg/disc (E. coli NCTC 13353; Compound alone, 0.25 μg/well): 15.5 mm; zone of inhibition at […] (E. coli M50; Escherichia coli, M50, E. coli M50, Compound + Ceftazidime (10 μg/ml), […], read-out: Diameter of Zone of Inhibition): 16 mm; zone of inhibition at 0.25 µg/disc (E. coli M50; Escherichia coli, M50, E. coli M50, Compound alone, 0.25 μg/well, read-out: Diameter of Zone of Inhibition): 15 mm
3 | O=C(Cc1ccc(OC[C@@H]2CCCN2)cc1)NNC(=O)[C@@H]1CC[C@@H]2CN1C(=O)N2OS(=O)(=O)O [Example 61, (2S,5R)-sulfuric acid mono-[2-(N′-{2-[4-((S)-pyrrolidin-2-ylmethoxy)-phenyl]-acetyl}-hydrazinocarbonyl)-7-oxo-1,6-diaza-bicyclo[3.2.1]oct-6-yl]ester] | 7.15 | 6.16 | – | – | – | – | – | – | – | – | – | – | – | 1 (≈ 2.01 µM) | 1 (≈ 2.01 µM) | 7.54 | 2 (≈ 4.02 µM) | –
4 | O=C(Cc1ccccc1O[C@H]1CCNC1)NNC(=O)[C@@H]1CC[C@@H]2CN1C(=O)N2OS(=O)(=O)O [Example 63, (2S,5R)-sulfuric acid mono-[2-(N′-{2-[2-((S)-pyrrolidin-3-oxy)-phenyl]-acetyl}-hydrazinocarbonyl)-7-oxo-1,6-diaza-bicyclo[3.2.1]oct-6-yl]ester] | 7.10 | 5.39 | – | – | – | – | – | – | – | – | – | – | – | 2 (≈ 4.14 µM) | 2 (≈ 4.14 µM) | 6.99 | 8 (≈ 16.5 µM) | –
5 | CC(OC(=O)NCCOc1ccccc1CC(=O)NNC(=O)[C@@H]1CC[C@@H]2CN1C(=O)N2OS(=O)(=O)[O-])OC(=O)C(C)C.[Na+] (stereo partly drawn) [Example 65, sodium salt of isobutyric acid 1-[2-(2-{2-oxo-2-[N′-((2S,5R)-6-sulphooxy-7-oxo-1,6-diaza-bicyclo[3.2.1]octane-2-carbonyl)-hydrazino]-ethyl}-phenoxy)-ethylcarbamoyloxy]-ethyl ester] | – | 6.27 | – | – | – | – | – | – | – | – | – | – | – | – | – | 8.30 | – | pIC50 ([1]; Class A K. pneumoniae ATCC 700603 (SHV 18), read-out: Beta-lactamase enzyme inhibition IC50): 8.10; MIC ([3]; Table 2): >32 µg/mL; MIC [4]: >32 µg/mL; MIC [6]: >32 µg/mL
